{"source": "patent US20050214375A1", "about": "“Process for producing block copolymer/drug composite” (priority 2002, published 2005)", "tested_on": "Colon 26 adenocarcinoma cells", "conditions": "intravenous; for T/C (%) volume ratio of tumor against control groups 14 days after administration: CDF1 female mouse, Colon 26", "procedure": "Colon 26 adenocarcinoma cells were transplanted subcutaneously in the subaxillary region of each CDF1 female mouse. When the volume of the tumor reached around 100 mm^3, the block copolymer-drug composite obtained in Example 1 or doxorubicin hydrochloride was administered intravenously. […] The antitumor effect of the drug was judged from the number of mice showing disappearance of tumor (cured) 60 days after transplantation and the tumor proliferation inhibition ratio 14 days after administration.", "note": "Where a name gives a salt, the structure may show the parent alone. Read-outs that look alike come from different tables or passages of the source.", "data": [{"compound": "COc1cccc2c1C(=O)c1c(O)c3c(c(O)c1C2=O)C[C@@](O)(C(=O)CO)C[C@@H]3O[C@H]1C[C@H](N)[C@H](O)[C@H](C)O1", "note": "[Doxorubicin hydrochloride, doxorubicin hydrochloride]", "values": [{"measurement": "Cure/n: number of mice showing cure after 60 days observation period/number in one group", "setting": "dose 19.2 mg/kg", "result": "2/10"}, {"measurement": "Tox./n: number of mice died with toxicity/number in one group", "setting": "dose 19.2 mg/kg", "result": "0/10"}, {"measurement": "T/C (%) volume ratio of tumor against control groups 14 days after administration", "setting": "dose 19.2 mg/kg", "result": 13.5, "unit": "%"}, {"measurement": "Cure/n: number of mice showing cure after 60 days observation period/number in one group", "setting": "dose 24.0 mg/kg", "result": "4/10"}, {"measurement": "Tox./n: number of mice died with toxicity/number in one group", "setting": "dose 24.0 mg/kg", "result": "0/10"}, {"measurement": "T/C (%) volume ratio of tumor against control groups 14 days after administration", "setting": "dose 24.0 mg/kg", "result": 6.4, "unit": "%"}, {"measurement": "Cure/n: number of mice showing cure after 60 days observation period/number in one group", "setting": "dose 30.0 mg/kg", "result": "3/10"}, {"measurement": "Tox./n: number of mice died with toxicity/number in one group", "setting": "dose 30.0 mg/kg", "result": "1/10"}, {"measurement": "T/C (%) volume ratio of tumor against control groups 14 days after administration", "setting": "dose 30.0 mg/kg", "result": 9.9, "unit": "%"}]}]}
